Measured values published in patent US20250145589A1, “PYRIDINE DERIVATIVE AND USE THEREOF” (SICHUAN HUIYU PHARMACEUTICAL CO., LTD., priority 2021, published 2025).
Where two headings read alike, the source gives them in different places.

Columns and labels:
[1] = system: MIA PaCa-2 cells (KRAS G12C mutant); test: MIA PaCa-2 cell anti-proliferation (CellTiter-Glo); assay type: cell-based; details: Homo sapiens, 72 h; MIA Paca-2 cells, 3 days, Table 7; read-out: MIA PaCa-2 (IC50)
In short: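 Viable-cell luminescence (CellTiter-Glo, ≥30 min at 25 °C) measured after a 3-day, 37 °C exposure to compounds at 9 points, 4-fold spaced, in DMEM containing 10% FBS plus 2.5% horse serum. IC50 derived versus no-inhibitor wells.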

[2] = molecular target: PI3Kδ (Homo sapiens (Human), UniProt O00329); test: Inhibition of PI3Kδ efficacy assay (ADP-Glo kinase assay); assay type: biochemical; details: read-out: PI3Kδ inhibitory activity (IC50)
In short: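 Luminescent ADP-Glo readout of PI3Kδ: after a 60 min RT reaction with PI/ATP substrate, ATP depletion (40 min) and ADP detection (40 min) steps followed. Compounds tested as eight five-fold serial dilutions; inhibition rates fitted to log(inhibitor) vs. response, variable slope, for IC50.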

[3] = molecular target: KRAS^G12C-SOS1 (Homo sapiens (Human), UniProt P01116, G12C); test: HTRF KRAS G12C/SOS1 binding assay; details: Table 5
In short: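 Compound was serially diluted five-fold over eight points, with a 2 mM DMSO stock. After anti-tag-Tb3+ and anti-tag-XL665 were added, plates were incubated 3 h at 4 °C and read by HTRF (ex 337 nm, em 620/665 nm ratio). IC50 values come from four-parameter variable-slope fits.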

[4] = system: NCI-H358 cells (KRAS G12C mutant); test: NCI-H358 cell proliferation inhibition (CellTiter-Glo); assay type: cell-based; details: Homo sapiens, NCI-H358, 72 h; H358 cells (G12C mutation), 3 days, Table 6; read-out: NCI-H358 (IC50)
[5] = system: NCI-H358-AMGR drug-resistant cell line; test: NCI-H358-AMGR drug-resistant cell proliferation inhibitory activity test; assay type: cell-based; details: 72 h; NCI-H358-AMGR drug-resistant cells, 3 days incubation, CellTiter-Glo
In short: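 Luminescent CellTiter-Glo read-out after 3-day, 37° C compound exposure (8 points, 5-fold series) of AMG510-resistant NCI-H358 cells plated at 4×10^3 per well.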

PI3Kδ, sequence (O00329 whole entry): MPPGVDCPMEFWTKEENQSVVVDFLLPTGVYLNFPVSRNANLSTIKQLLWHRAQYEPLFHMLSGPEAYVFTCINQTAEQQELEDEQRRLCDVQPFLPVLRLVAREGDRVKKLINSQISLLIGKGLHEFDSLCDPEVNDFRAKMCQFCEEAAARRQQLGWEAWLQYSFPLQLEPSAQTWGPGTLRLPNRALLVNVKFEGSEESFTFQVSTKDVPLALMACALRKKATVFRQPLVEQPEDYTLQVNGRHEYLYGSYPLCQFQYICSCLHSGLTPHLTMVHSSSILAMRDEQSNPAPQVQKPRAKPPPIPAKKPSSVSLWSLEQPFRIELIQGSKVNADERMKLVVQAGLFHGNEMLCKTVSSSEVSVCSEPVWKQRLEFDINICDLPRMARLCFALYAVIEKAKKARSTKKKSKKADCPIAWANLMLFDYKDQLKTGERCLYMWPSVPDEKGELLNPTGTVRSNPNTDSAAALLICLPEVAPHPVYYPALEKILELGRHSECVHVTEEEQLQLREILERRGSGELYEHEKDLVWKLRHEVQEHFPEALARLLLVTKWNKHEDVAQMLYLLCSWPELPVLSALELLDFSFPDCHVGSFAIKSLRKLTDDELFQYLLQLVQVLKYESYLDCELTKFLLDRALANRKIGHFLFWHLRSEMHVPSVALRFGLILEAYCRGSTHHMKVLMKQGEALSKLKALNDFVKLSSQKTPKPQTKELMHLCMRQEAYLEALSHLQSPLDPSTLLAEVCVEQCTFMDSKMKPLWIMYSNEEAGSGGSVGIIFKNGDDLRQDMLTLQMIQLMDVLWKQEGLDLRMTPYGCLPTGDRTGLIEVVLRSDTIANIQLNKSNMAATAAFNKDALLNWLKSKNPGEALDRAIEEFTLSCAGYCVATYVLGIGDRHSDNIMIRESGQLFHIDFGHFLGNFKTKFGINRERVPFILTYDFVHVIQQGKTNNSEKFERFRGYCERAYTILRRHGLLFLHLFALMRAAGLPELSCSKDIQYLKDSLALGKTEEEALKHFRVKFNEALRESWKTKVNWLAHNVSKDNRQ
PI3Kδ, sequence (P27986 whole entry partner): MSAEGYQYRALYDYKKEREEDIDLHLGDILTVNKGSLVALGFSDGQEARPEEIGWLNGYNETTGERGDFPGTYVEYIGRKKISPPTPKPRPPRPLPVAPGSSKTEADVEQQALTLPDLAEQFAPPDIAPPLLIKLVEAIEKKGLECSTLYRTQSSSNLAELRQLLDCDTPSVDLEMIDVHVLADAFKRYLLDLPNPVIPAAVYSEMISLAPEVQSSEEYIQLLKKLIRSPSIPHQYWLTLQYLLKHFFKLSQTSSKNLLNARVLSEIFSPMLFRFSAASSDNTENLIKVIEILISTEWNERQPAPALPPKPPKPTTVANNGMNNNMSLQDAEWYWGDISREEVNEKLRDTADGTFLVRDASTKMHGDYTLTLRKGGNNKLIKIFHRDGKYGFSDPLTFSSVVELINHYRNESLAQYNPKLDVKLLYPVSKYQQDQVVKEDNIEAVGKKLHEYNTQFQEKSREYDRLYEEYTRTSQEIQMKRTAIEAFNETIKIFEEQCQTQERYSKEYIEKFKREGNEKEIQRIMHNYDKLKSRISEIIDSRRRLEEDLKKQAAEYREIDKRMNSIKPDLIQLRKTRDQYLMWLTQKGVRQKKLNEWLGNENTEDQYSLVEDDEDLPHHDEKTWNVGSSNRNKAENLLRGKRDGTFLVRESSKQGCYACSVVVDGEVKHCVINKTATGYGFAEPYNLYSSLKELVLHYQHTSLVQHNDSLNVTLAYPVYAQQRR
KRAS^G12C-SOS1, sequence (P01116-2 other isoform, or with tags, fused parts or gaps G12C): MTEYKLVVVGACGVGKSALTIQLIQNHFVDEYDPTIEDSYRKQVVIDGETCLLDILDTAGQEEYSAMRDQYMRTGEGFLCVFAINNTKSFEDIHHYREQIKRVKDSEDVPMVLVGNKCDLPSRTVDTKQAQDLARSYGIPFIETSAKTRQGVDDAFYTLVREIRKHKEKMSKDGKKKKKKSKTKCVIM

Work on `COc1ncc(-c2ccc3ncnc(C4CCN(C(=O)/C=C/C(C)=O)CC4)c3c2)cc1NS(=O)(=O)c1sc(C)nc1C` [Example 203, (E)-N-(2-methoxy-5-(4-(1-(4-oxopent-2-enoyl)piperidin-4-yl)quinazolin-6-yl)pyridin-3-yl)-2,4-dimethylthiazole-5-sulfonamide] yielded an IC50 [1] of 51.4 nM, an IC50 ([2]; Table 4) of 10.4 nM and an IC50 [3] of 419 nM. For the same molecule, the IC50 [4] was 8.5 nM and the IC50 [5] was 5.4 nM.

With `COc1ncc(-c2ccc3ncnc(N4C[C@@H](C)N(C(=O)/C=C/C(C)=O)C[C@@H]4C)c3c2)cc1NS(=O)(=O)c1ccc(F)cc1F` [Example 15, N-(5-(4-((2S,5R)-2,5-dimethyl-4-((E)-4-oxopent-2-enoyl)piperazin-1-yl)quinazolin-6-yl)-2-methoxypyridin-3-yl)-2,4-difluorobenzenesulfonamide] the IC50 [1] was 71.1 nM, the IC50 ([2]; Table 1) was 130 nM and the IC50 [3] was 558 nM. The IC50 [4] was 19.9 nM and the IC50 [5] was 62.1 nM.

`CCCC(=O)/C=C/C(=O)N1CCN(c2ncnc3ccc(-c4cnc(OC)c(NS(=O)(=O)c5ccc(F)cc5F)c4)cc23)CC1` [Example 17, (E)-2,4-difluoro-N-(2-methoxy-5-(4-(4-(4-oxohept-2-enoyl)piperazin-1-yl)quinazolin-6-yl)pyridin-3-yl)benzenesulfonamide] showed an IC50 [1] of 87.9 nM, an IC50 ([2]; Table 1) of 31 nM and an IC50 [3] of 313 nM. The IC50 [4] was 34.6 nM and the IC50 [5] was 53.3 nM.

Work on `[2H]C([2H])([2H])Oc1ncc(-c2ccc3ncnc(N4CCN(C(=O)/C=C/C(C)=O)CC4)c3c2)cc1NS(=O)(=O)c1ccc(F)cc1F` [Example 191, (E)-2,4-difluoro-N-(2-(methoxy-d3)-5-(4-(4-(4-oxopent-2-enoyl)piperazin-1-yl)quinazolin-6-yl)pyridin-3-yl)benzene-sulfonamide] yielded an IC50 [1] of 54.2 nM, an IC50 ([2]; Table 4) of 16.7 nM and an IC50 [3] of 143 nM. It also gave an IC50 [4] of 20.2 nM and an IC50 [5] of 36.4 nM.

`COc1ccc(Cl)c(S(=O)(=O)Nc2cc(-c3ccc4ncnc(N5CCN(C(=O)/C=C/C(C)=O)CC5)c4c3)cnc2OC)c1` [Example 184, (E)-2-chloro-5-methoxy-N-(2-methoxy-5-(4-(4-(4-oxopent-2-enoyl)piperazin-1-yl)quinazolin-6-yl)pyridin-3-yl)benzene-sulfonamide] gave an IC50 [1] of 60.2 nM, an IC50 ([2]; Table 4) of 16.2 nM and an IC50 [3] of 365 nM. For the same molecule, the IC50 [4] was 73.8 nM and the IC50 [5] was 135 nM.

For `COc1ncc(-c2ccc3ncnc(C4CCN(C(=O)/C=C/C(C)=O)CC4)c3c2)cc1NS(=O)(=O)c1ccccc1F` [Example 204, (E)-2-fluoro-N-(2-methoxy-5-(4-(1-(4-oxopent-2-enoyl)piperidin-4-yl)quinazolin-6-yl)pyridin-3-yl)benzenesulfonamide], the IC50 [1] was 115 nM, the IC50 ([2]; Table 4) was 17 nM and the IC50 [3] was 306 nM. It also gave an IC50 [4] of 25.2 nM and an IC50 [5] of 47.1 nM.

`COc1ncc(-c2ccc3ncnc(C4CCN(C(=O)/C=C/C(C)=O)CC4)c3n2)cc1NS(=O)(=O)c1ccc(F)cc1F` [Example 234, (E)-2,4-difluoro-N-(2-methoxy-5-(4-(1-(4-oxopent-2-enoyl)piperidin-4-yl)pyrido[3,2-d]pyrimidin-6-yl)pyridin-3-yl)benzenesulfonamide] gave an IC50 [1] of 14.9 nM, an IC50 ([2]; Table 4) of 20 nM and an IC50 [3] of 292 nM. For the same molecule, the IC50 [4] was 5.5 nM and the IC50 [5] was 58.2 nM.

With `COc1ncc(-c2ccc3ncnc(N4CCN(C(=O)/C=C/C(C)=O)CC4)c3n2)cc1NS(=O)(=O)c1c(Cl)cncc1Cl` [Example 224, (E)-3,5-dichloro-N-(2-methoxy-5-(4-(4-(4-oxopent-2-enoyl)piperazin-1-yl)pyrido[3,2-d]pyrimidin-6-yl)pyridin-3-yl) pyridine-4-sulfonamide] the IC50 [1] was 79.3 nM, the IC50 ([2]; Table 4) was 23.8 nM and the IC50 [3] was 188 nM. It also gave an IC50 [4] of 88.1 nM and an IC50 [5] of 220 nM.

Molecule `COc1ncc(-c2ccc3ncnc(C4=CCN(C(=O)/C=C/C(C)=O)CC4)c3c2)cc1NS(=O)(=O)c1ccccc1F` [Example 200, (E)-2-fluoro-N-(2-methoxy-5-(4-(1-(4-oxopent-2-enoyl)-1,2,3,6-tetrahydropyridin-4-yl)quinazolin-6-yl)pyridin-3-yl)benzene-sulfonamide] has an IC50 [1] of 40.5 nM, an IC50 ([2]; Table 4) of 9.7 nM and an IC50 [3] of 133 nM. It also gave an IC50 [4] of 10.9 nM and an IC50 [5] of 6.5 nM.

Molecule `COc1ncc(-c2ccc3ncnc(N4CCN(C(=O)/C=C/C(C)=O)CC4)c3n2)cc1NS(=O)(=O)c1c(F)cccc1Cl` [Example 225, (E)-2-chloro-6-fluoro-N-(2-methoxy-5-(4-(4-(4-oxopent-2-enoyl)piperazin-1-yl)pyrido[3,2-d]pyrimidin-6-yl)pyridin-3-yl) benzene-sulfonamide] has an IC50 [1] of 15.6 nM, an IC50 ([2]; Table 4) of 8.9 nM and an IC50 [3] of 110 nM. The IC50 [4] was 13.5 nM and the IC50 [5] was 34.9 nM.

With `CCOc1ncc(-c2ccc3ncnc(N4CCN(C(=O)/C=C/C(C)=O)CC4)c3c2)cc1NS(=O)(=O)c1ccc(F)cc1F` [Example 109, (E)-N-(2-ethoxy-5-(4-(4-(4-oxopent-2-enoyl)piperazin-1-yl)quinazolin-6-yl)pyridin-3-yl)-2,4-difluorobenzenesulfonamide] the IC50 [1] was 94.2 nM, the IC50 ([2]; Table 2) was 48.9 nM and the IC50 [3] was 499 nM. It also gave an IC50 [4] of 63.8 nM and an IC50 [5] of 113 nM.

In the case of `COc1ncc(-c2ccc3ncnc(N4CCN(C(=O)/C=C/C(C)=O)CC4)c3n2)cc1NS(=O)(=O)c1c(F)cncc1F` [Example 210, (E)-3,5-difluoro-N-(2-methoxy-5-(4-(4-(4-oxopent-2-enoyl)piperazin-1-yl)pyrido[3,2-d]pyrimidin-6-yl)pyridin-3-yl)pyridine-4-sulfonamide], the IC50 [1] is reported as 47.7 nM, the IC50 ([2]; Table 4) is reported as 5.9 nM and the IC50 [3] is reported as 131 nM. It also gave an IC50 [4] of 53.4 nM and an IC50 [5] of 287 nM.

Work on `COc1ncc(-c2ccc3ncnc(C4CCN(C(=O)/C=C/C(C)=O)CC4)c3n2)cc1NS(=O)(=O)c1c(F)cc(F)cc1F` [Example 231, (E)-2,4,6-trifluoro-N-(2-methoxy-5-(4-(1-(4-oxopent-2-enoyl)piperidin-4-yl)pyrido[3,2-d]pyrimidin-6-yl)pyridin-3-yl)benzenesulfonamide] yielded an IC50 [1] of 13.2 nM, an IC50 ([2]; Table 4) of 16.1 nM and an IC50 [3] of 462 nM. For the same molecule, the IC50 [4] was 3.7 nM and the IC50 [5] was 21.6 nM.

`COc1ncc(-c2ccc3ncnc(N4CCN(C(=O)/C=C/C(C)=O)CC4)c3c2)cc1NS(=O)(=O)c1ncc(Cl)s1` [Example 165, (E)-5-chloro-N-(2-methoxy-5-(4-(4-(4-oxopent-2-enoyl)piperazin-1-yl)quinazolin-6-yl)pyridin-3-yl)thiazole-2-sulfonamide] was tested, and the IC50 [1] was 250 nM, the IC50 ([2]; Table 4) was 12 nM and the IC50 [3] was 362 nM. The IC50 [4] was 36.5 nM and the IC50 [5] was 171 nM.

Molecule `COc1ncc(-c2ccc3ncnc(N4CCN(C(=O)/C=C/C(C)=O)CC4)c3n2)cc1NS(=O)(=O)c1c(F)cccc1F` [Example 131, (E)-2,6-difluoro-N-(2-methoxy-5-(4-(4-(4-oxopent-2-enoyl)piperazin-1-yl)pyrido[3,2-d]pyrimidin-6-yl)pyridin-3-yl)benzenesulfonamide] has an IC50 [1] of 25 nM, an IC50 ([2]; Table 3) of 13.7 nM and an IC50 [3] of 200 nM. The IC50 [4] was 5.2 nM and the IC50 [5] was 19.1 nM.

With `COc1ncc(-c2ccc3ncnc(N4C5CCC4CN(C(=O)/C=C/C(C)=O)C5)c3c2)cc1NS(=O)(=O)c1ccc(F)cc1F` [Example 144, 2,4-difluoro-N-(2-methoxy-5-(4-(3-((E)-4-oxopent-2-enoyl)-3,8-diazabicyclo[3.2.1]octan-8-yl)quinazolin-6-yl)pyridin-3-yl)benzenesulfonamide] the IC50 [1] was 58.7 nM, the IC50 ([2]; Table 4) was 13.4 nM and the IC50 [3] was 390 nM. It also gave an IC50 [4] of 47.8 nM and an IC50 [5] of 43.1 nM.

`COc1ncc(-c2ccc3ncnc(N4CCN(C(=O)/C=C/C(C)=O)CC4)c3c2)cc1NS(=O)(=O)c1c(F)cc(F)cc1F` [Example 99, (E)-2,4,6-trifluoro-N-(2-methoxy-5-(4-(4-(4-oxopent-2-enoyl)piperazin-1-yl)quinazolin-6-yl)pyridin-3-yl)benzenesulfonamide] gave an IC50 [1] of 16.7 nM, an IC50 ([2]; Table 2) of 7.9 nM and an IC50 [3] of 188 nM. The IC50 [4] was 9.6 nM and the IC50 [5] was 65.2 nM.

In the case of `COc1ncc(-c2ccc3ncnc(N4CCC5(CC4)CN(C(=O)/C=C/C(C)=O)C5)c3c2)cc1NS(=O)(=O)c1ccc(F)cc1Cl` [Example 171, (E)-2-chloro-4-fluoro-N-(2-methoxy-5-(4-(2-(4-oxopent-2-enoyl)-2,7-diazaspiro[3.5]nonan-7-yl)quinazolin-6-yl)pyridin-3-yl)benzene-sulfonamide], the IC50 [1] is reported as 12.6 nM, the IC50 ([2]; Table 4) is reported as 40.1 nM and the IC50 [3] is reported as 441 nM. The IC50 [4] was 5.7 nM and the IC50 [5] was 41.5 nM.

`COc1ncc(-c2ccc3ncnc(N4CCN(C(=O)/C=C/C(C)=O)CC4)c3n2)cc1NS(=O)(=O)c1c(F)cc(F)cc1F` [Example 219, (E)-2,4-trifluoro-N-(2-methoxy-5-(4-(4-(4-oxopent-2-enoyl)piperazin-1-yl)pyrido[3,2-d]pyrimidin-6-yl)pyridin-3-yl) benzene-sulfonamide] was tested, and the IC50 [1] was 5.8 nM, the IC50 ([2]; Table 4) was 11.6 nM and the IC50 [3] was 152 nM. For the same molecule, the IC50 [4] was 7.3 nM and the IC50 [5] was 15.9 nM.
